According to the supplement of paper PMC10307832:

Tests used:
Test in all cases: relative viability (nuclei count vs DMSO), 5 days (fraction); higher = more cells survive
[1] = compound: CCC1=CN=CN=C1N2CCN(CC2)CC3=NC4=C(N3)C=C(C=C4)C(F)(F)F + Nc1ncn([C@H]2C[C@H](O)[C@@H](CO)O2)c(=O)n1 [Decitabine] (partner 2 µM)
Procedure, shortened: (§1)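 Lung cancer cell lines were pin-tool dosed in 1536-well plates on the day after seeding, with either a lone drug or a fixed anchor-drug dose plus five library-drug doses (not always all listed) in √10 steps. Nuclei were counted on 4× images after 5 days. Relative viability is the ratio of treated-well to vehicle-well nuclei counts, with each value a median of duplicate plates.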

Mirin + Pictilisib = compound: N=C1NC(=O)/C(=C/c2ccc(O)cc2)S1 [Mirin] + CS(=O)(=O)N1CCN(Cc2cc3nc(-c4cccc5[nH]ncc45)nc(N4CCOCC4)c3s2)CC1 [Pictilisib] (partner 1 µM)
Procedure, shortened: as §1

[2] = compound: CCn1c(-c2nonc2N)nc2cnc(Oc3cccc(NC(=O)c4ccc(OCCN5CCOCC5)cc4)c3)cc21 + CS(=O)(=O)N1CCN(Cc2cc3nc(-c4cccc5[nH]ncc45)nc(N4CCOCC4)c3s2)CC1 [Pictilisib] (partner 1 µM)
Procedure, shortened: as §1

[3] = compound: CCC1=CN=CN=C1N2CCN(CC2)CC3=NC4=C(N3)C=C(C=C4)C(F)(F)F + CS(=O)(=O)N1CCN(Cc2cc3nc(-c4cccc5[nH]ncc45)nc(N4CCOCC4)c3s2)CC1 [Pictilisib] (partner 1 µM)
Procedure, shortened: as §1

Cell Line	relative viability ([1]; first compound 0.04 µM)	relative viability ([1]; first compound 0.1265 µM)	relative viability ([1]; first compound 0.4 µM)	relative viability ([1]; first compound 1.265 µM)	relative viability ([1]; first compound 4 µM)	relative viability (Mirin + Pictilisib; first compound 0.25 µM)	relative viability (Mirin + Pictilisib; first compound 0.7906 µM)	relative viability (Mirin + Pictilisib; first compound 2.5 µM)	relative viability (Mirin + Pictilisib; first compound 7.906 µM)	relative viability (Mirin + Pictilisib; first compound 25 µM)	relative viability ([2]; first compound 0.04 µM)	relative viability ([2]; first compound 0.1265 µM)	relative viability ([2]; first compound 0.4 µM)	relative viability ([2]; first compound 1.265 µM)	relative viability ([2]; first compound 4 µM)	relative viability ([3]; first compound 0.04 µM)	relative viability ([3]; first compound 0.1265 µM)	relative viability ([3]; first compound 0.4 µM)	relative viability ([3]; first compound 1.265 µM)	relative viability ([3]; first compound 4 µM)
NCI-H520	0.598	0.414	0.426	0.424	0.436	0.275	0.284	0.274	0.202	0.181	0.326	0.31	0.256	0.265	0.182	0.326	0.28	0.238	0.255	0.279
LCLC-97TM1	0.24	0.205	0.225	0.227	0.215	0.184	0.128	0.193	0.136	0.149	0.261	0.363	–	0.351	0.236	0.181	0.198	0.181	0.204	0.214
COR-L23	0.438	0.378	0.406	0.383	0.499	0.8	0.721	0.854	0.738	0.687	1.02	0.68	0.238	0.197	0.192	0.696	0.71	0.676	0.632	0.769
NCI-H1355	0.326	0.388	0.344	0.339	0.359	0.48	0.254	0.419	0.427	0.505	0.446	0.418	0.338	0.32	0.277	0.541	0.414	0.361	0.293	0.453
NCI-H1666	0.746	0.733	0.699	0.65	0.719	0.445	0.64	0.365	0.36	0.324	0.527	0.409	0.499	0.329	0.246	0.569	0.402	0.417	0.498	0.501
EPLC-272H	0.347	0.319	0.388	0.288	0.406	0.35	–	0.284	0.311	0.258	0.406	0.341	0.181	0.258	0.281	0.305	0.285	0.287	0.302	0.284
ChaGo-K-1	0.554	0.471	0.526	0.501	0.488	0.667	–	0.713	0.571	0.693	1.13	0.652	0.507	–	0.425	–	0.707	0.63	0.668	0.557
NCI-H1651	0.623	0.413	0.667	0.602	0.581	0.62	0.597	0.573	0.488	0.554	0.762	0.667	0.456	0.486	0.345	0.625	0.607	0.487	0.65	0.675
NCI-H2087	0.278	0.234	0.331	0.271	0.209	0.833	0.669	0.818	0.708	0.788	–	1.07	0.981	0.881	0.785	0.852	0.906	0.883	0.819	0.653
HCC-44	0.964	0.939	0.944	0.949	0.937	0.7	0.819	0.602	0.541	0.474	0.557	0.529	0.276	0.236	0.244	0.584	0.593	0.557	0.477	0.596
RERF-LC-KJ	0.638	0.627	0.745	0.577	0.611	0.716	0.518	0.563	0.594	0.439	0.541	0.452	0.516	0.476	0.377	0.558	0.498	0.487	0.444	0.505
LOU-NH91	0.797	0.79	0.806	0.841	0.816	0.499	–	0.496	0.502	0.46	0.61	0.613	0.484	0.475	0.495	0.501	0.533	0.54	0.47	0.551
PC-3 [JPC-3]	–	0.779	0.706	0.771	0.835	0.678	0.73	0.731	0.702	0.706	0.919	0.775	0.68	0.723	0.714	0.704	0.657	0.604	0.739	0.697
NCI-H2126	0.598	0.58	0.595	0.541	0.58	0.533	0.406	0.465	0.456	0.448	0.568	0.525	0.461	0.567	0.649	0.518	0.496	0.493	0.442	0.496
LU99A	0.906	0.877	0.785	0.837	0.843	0.282	0.302	0.295	0.283	0.271	0.392	0.322	0.192	0.317	0.214	0.369	0.287	0.363	0.346	0.321
BEN	0.638	0.61	0.703	0.548	0.508	0.484	0.656	0.619	0.416	0.312	0.574	0.501	0.43	0.285	0.318	0.593	0.557	0.503	0.343	0.331
